18 compounds from patent US10072011B2, “Substituted bridged urea analogs as sirtuin modulators” (GlaxoSmithKline Intellectual Property (No.2) Limited, priority 2014, dated 2018) can be followed below.

The target in this assay is T1, SIRT1 (Homo sapiens, UniProt Q96EB6).
T1 sequence (Q96EB6 1-747): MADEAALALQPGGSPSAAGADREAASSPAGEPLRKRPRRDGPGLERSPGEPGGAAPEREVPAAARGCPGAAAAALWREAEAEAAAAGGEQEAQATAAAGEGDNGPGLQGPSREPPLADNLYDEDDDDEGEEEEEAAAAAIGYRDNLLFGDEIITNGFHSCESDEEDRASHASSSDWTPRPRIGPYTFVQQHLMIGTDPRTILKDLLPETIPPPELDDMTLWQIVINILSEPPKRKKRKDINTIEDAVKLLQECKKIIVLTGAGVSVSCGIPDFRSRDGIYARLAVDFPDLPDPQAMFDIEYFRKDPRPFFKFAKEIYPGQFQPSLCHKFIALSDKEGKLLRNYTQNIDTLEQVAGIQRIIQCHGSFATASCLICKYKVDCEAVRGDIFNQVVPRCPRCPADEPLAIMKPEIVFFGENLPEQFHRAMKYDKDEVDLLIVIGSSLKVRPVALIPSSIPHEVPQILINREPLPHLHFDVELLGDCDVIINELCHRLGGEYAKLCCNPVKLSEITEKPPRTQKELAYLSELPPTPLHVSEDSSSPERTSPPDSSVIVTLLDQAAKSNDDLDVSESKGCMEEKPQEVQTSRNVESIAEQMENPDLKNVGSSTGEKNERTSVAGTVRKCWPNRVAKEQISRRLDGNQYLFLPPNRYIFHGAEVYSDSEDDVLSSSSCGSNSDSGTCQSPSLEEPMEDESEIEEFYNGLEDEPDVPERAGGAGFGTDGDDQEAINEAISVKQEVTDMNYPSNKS
The experiment in a line: Trp mass spectrometry assay of SIRT1 activation (Ac-R-H-K-K(Ac)-W-NH2 peptide). Format: biochemical. To be noted: Trp peptide 0.5 μM, 120 μM βNAD+, 10 nM SIRT1, 25 min at 25° C.; for Emax: 25 min, relative to control (100%), read-out: TRP MAX RESP (percent maximum fold activation). The protocol:
The Trp mass spectrometry assay was conducted as follows. […] The SIRT1 protein was obtained by cloning the SirT1 gene into a T7-promoter containing vector, which was then expressed in BL21(DE3) bacterial cells and purified as described in further detail below. Test compound was added at varying concentrations to this reaction mixture and the resulting reactions were monitored. After the 25 minute incubation with SIRT1, 10 μL of 10% formic acid was added to stop the reaction. The resulting reactions were sealed and frozen for later mass spec analysis. The relative SIRT1 activity was then determined by measuring the amount of O-acetyl-ADP-ribose (OAADPR) formed (or, alternatively, the amount of deacetylated Trp peptide generated) by the NAD-dependent sirtuin deacetylation reaction in the presence of varying concentrations of the test compound versus control reactions lacking the test compound. The degree to which the test agent activated deacetylation by SIRT1 was expressed as EC1.5 (i.e., the concentration of compound required to increase SIRT1 activity by 50% over the control lacking test compound), and Percent Maximum Activation (i.e., the maximum activity relative to control (100%) obtained for the test compound).
This time point was the same as that used for test compounds and, within the linear range, the endpoint represents a change in velocity.
For the above assay, SIRT1 protein was expressed and purified as follows. The SirT1 gene was cloned into a T7-promoter containing vector and transformed into BL21(DE3). The protein was expressed by induction with 1 mM IPTG as an N-terminal His-tag fusion protein at 18° C. overnight and harvested at 30,000×g. Cells were lysed with lysozyme in lysis buffer (50 mM Tris-HCl, 2 mM Tris[2-carboxyethyl]phosphine (TCEP), 10 μM ZnCl2, 200 mM NaCl) and further treated with sonication for 10 min for complete lysis. The protein was purified over a Ni-NTA column (Amersham) and fractions containing pure protein were pooled, concentrated and run over a sizing column (Sephadex S200 26/60 global). The peak containing soluble protein was collected and run on an Ion-exchange column (MonoQ). Gradient elution (200 mM-500 mM NaCl) yielded pure protein. This protein was concentrated and dialyzed against dialysis buffer (20 mM Tris-HCl, 2 mM TCEP) overnight. The protein was aliquoted and frozen at −80° C. until further use.
“NT” means not tested; “ND” means not determinable.

On to `O=C(NC1CCCOC1)c1ccc2c(n1)N(C(=O)Nc1ccccn1)[C@H]1CCN2C1` (stereo partly drawn) [Example 5, (4S)—N-5-(pyridin-2-yl)-N-7-(tetrahydro-2H-pyran-3-yl)-3,4-dihydro-1,4-methanopyrido [2,3-b] [1, 4] diazepine-5, 7(2H)-dicarboxamide], for which the Emax is greater than 150% and the “TRP Activity (EC1.5, concentration of test compound that results in 150% activation of SIRT1)” value is on record as “B (EC1.5 1-25 μM)”. As to `O=C(NC1CCOC1)c1ccc2c(n1)N(C(=O)Nc1ccccn1)[C@H]1CCN2C1` (stereo partly drawn) [Example 6, (4S)—N-5-(pyridin-2-yl)-N-7-(tetrahydrofuran-3-yl)-3,4-dihydro-1,4-methano pyrido [2,3-b] [1, 4] diazepine-5, 7(2H)-dicarboxamide], the Emax is greater than 150% and the “TRP Activity (EC1.5, concentration of test compound that results in 150% activation of SIRT1)” value is on record as “B (EC1.5 1-25 μM)”. On to `O=C(NC1CCC1)c1ccc2c(n1)N(C(=O)Nc1ccccn1)[C@H]1CCN2C1` [Example 7, (4S)—N-7-cyclobutyl-N-5-(pyridin-2-yl)-3,4-dihydro-1,4-methanopyrido [2,3-b] [1, 4] diazepine-5, 7(2H)-dicarboxamide], for which the Emax was greater than 150% and the “TRP Activity (EC1.5, concentration of test compound that results in 150% activation of SIRT1)” value was “A (EC1.5<1 μM)”. The matching figures for `O=C(NC(CO)C(F)(F)F)c1ccc2c(n1)N(C(=O)Nc1ccccn1)[C@H]1CCN2C1` (stereo partly drawn) [Example 8, (4S)—N-5-(pyridin-2-yl)-N-7-(1,1,1-trifluoro-3-hydroxypropan-2-yl)-3,4-dihydro-1,4-methanopyrido[2,3-b][1,4]diazepine-5,7(2H)-dicarboxamide]: greater than 150% and “A (EC1.5<1 μM)”. On the same counts, the results for `COCC(NC(=O)c1ccc2c(n1)N(C(=O)Nc1ccccn1)[C@H]1CCN2C1)C(F)(F)F` (stereo partly drawn) [Example 9, (4S)—N-5-(pyridin-2-yl)-N-7-(1,1,1-trifluoro-3-methoxypropan-2-yl)-3,4-dihydro-1,4-methanopyrido[2,3-b][1,4]diazepine-5,7(2H)-dicarboxamide] are greater than 150% and “A (EC1.5<1 μM)”.

With `CC(CO)NC(=O)c1ccc2c(n1)N(C(=O)Nc1ccccn1)[C@H]1CCN2C1` (stereo partly drawn) [Example 10, (4S)—N-7-(1-hydroxypropan-2-yl)-N-5-(pyridin-2-yl)-3,4-dihydro-1,4-methanopyrido [2,3-b] [1, 4] diazepine-5, 7(2H)-dicarboxamide], the Emax is greater than 150% and the “TRP Activity (EC1.5, concentration of test compound that results in 150% activation of SIRT1)” value was “B (EC1.5 1-25 μM)”. The matching figures for `COCC(C)NC(=O)c1ccc2c(n1)N(C(=O)Nc1ccccn1)[C@H]1CCN2C1` (stereo partly drawn) [Example 11, (4S)—N-7-(1-methoxypropan-2-yl)-N-5-(pyridin-2-yl)-3,4-dihydro-1,4-methanopyrido [2,3-b] [1, 4] diazepine-5, 7(2H)-dicarboxamide]: greater than 150% and “B (EC1.5 1-25 μM)”. On the same counts, the results for `COC(=O)CNC(=O)c1ccc2c(n1)N(C(=O)Nc1ccccn1)[C@H]1CCN2C1` [Example 12] are greater than 150% and “B (EC1.5 1-25 μM)”. Consider `O=C(NCCO)c1ccc2c(n1)N(C(=O)Nc1ccccn1)[C@H]1CCN2C1` [Example 13, (4S)—N-7-(2-hydroxyethyl)-N-5-(pyridin-2-yl)-3,4-dihydro-1,4-methanopyrido [2,3-b] [1, 4] diazepine-5, 7(2H)-dicarboxamide], for which the Emax is greater than 150%. Take `O=C(O)CNC(=O)c1ccc2c(n1)N(C(=O)Nc1ccccn1)[C@H]1CCN2C1` [Example 14, 2-((4S)-5-(pyridin-2-ylcarbamoyl)-2,3,4,5-tetrahydro-1,4 methanopyrido[2,3-b][1,4]diazepine-7-carboxamido)acetic acid]: the Emax was less than 150% and the “TRP Activity (EC1.5, concentration of test compound that results in 150% activation of SIRT1)” value is “C (EC1.5>25 μM)”.

`CC(C)(C)CNC(=O)c1ccc2c(n1)N(C(=O)Nc1ccccn1)[C@H]1CCN2C1` [Example 15, (4S)—N-7-neopentyl-N-5-(pyridin-2-yl)-3,4-dihydro-1,4-methanopyrido[2,3-b][1,4]diazepine-5,7(2H)-dicarboxamide]: the Emax is greater than 150% and the “TRP Activity (EC1.5, concentration of test compound that results in 150% activation of SIRT1)” value was “A (EC1.5<1 μM)”.

As to `O=C(N[C@H](CO)C(F)(F)F)c1ccc2c(n1)N(C(=O)Nc1ccccn1)[C@H]1CCN2C1` [Example 16, (4S)—N5-(pyridin-2-yl)-N7-((R)-1,1,1-trifluoro-3-hydroxypropan-2-yl)-3,4-dihydro-1,4-methanopyrido[2,3-b][1,4]diazepine-5,7(2H)-dicarboxamide], the Emax is greater than 150% and the “TRP Activity (EC1.5, concentration of test compound that results in 150% activation of SIRT1)” value is listed as “A (EC1.5<1 μM)”. The matching figures for `O=C(NC1(CO)CC1)c1ccc2c(n1)N(C(=O)Nc1ccccn1)[C@H]1CCN2C1` [Example 17, (4S)—N7-(1-(hydroxymethyl)cyclopropyl)-N5-(pyridin-2-yl)-3,4-dihydro-1,4-methanopyrido[2,3-b][1,4]diazepine-5,7(2H)-dicarboxamide]: greater than 150% and “B (EC1.5 1-25 μM)”. On the same counts, the results for `C[C@@H](NC(=O)c1ccc2c(n1)N(C(=O)Nc1ccccn1)[C@H]1CCN2C1)C(F)(F)F` [Example 19, (4S)—N5-(pyridin-2-yl)-N7-((R)-1,1,1-trifluoropropan-2-yl)-3,4-dihydro-1,4-methanopyrido[2,3-b][1,4]diazepine-5,7(2H)-dicarboxamide] are greater than 150% and “A (EC1.5<1 μM)”.

As for `O=C(NC1CC1(F)F)c1ccc2c(n1)N(C(=O)Nc1ccccn1)[C@H]1CCN2C1` (stereo partly drawn) [Example 20, (4S)—N7-(2,2-difluorocyclopropyl)-N5-(pyridin-2-yl)-3,4-dihydro-1,4-methanopyrido[2,3-b][1,4]diazepine-5,7(2H)-dicarboxamide], the Emax was greater than 150% and the “TRP Activity (EC1.5, concentration of test compound that results in 150% activation of SIRT1)” value is listed as “A (EC1.5<1 μM)”. With `Cc1ccnc(NC(=O)N2c3nc(C(=O)NC4CC4)ccc3N3CC[C@H]2C3)c1` [Example 22, (4S)—N7-cyclopropyl-N5-(4-methylpyridin-2-yl)-3,4-dihydro-1,4-methanopyrido[2,3-b][1,4]diazepine-5,7(2H)-dicarboxamide], the Emax is greater than 150% and the “TRP Activity (EC1.5, concentration of test compound that results in 150% activation of SIRT1)” value is given as “B (EC1.5 1-25 μM)”. On the same counts, the results for `Cn1cccc(NC(=O)N2c3nc(C(=O)NCC(F)(F)F)ccc3N3CC[C@H]2C3)c1=O` [Example 23, (4S)—N5-(1-methyl-2-oxo-1,2-dihydropyridin-3-yl)-N7-(2,2,2-trifluoroethyl)-3,4-dihydro-1,4-methanopyrido[2,3-b][1,4]diazepine-5,7(2H)-dicarboxamide] are greater than 150% and “A (EC1.5<1 μM)”.

On to `O=C(NC1CC1)c1ccc2c(n1)N(C(=O)Nc1cc(OC[C@H](O)CO)ccn1)[C@H]1CCN2C1` [Example 24, (4S)—N7-cyclopropyl-N5-(4-((R)-2,3-dihydroxypropoxy)pyridin-2-yl)-3,4-dihydro-1,4-methanopyrido[2,3-b][1,4]diazepine-5,7(2H)-dicarboxamide], for which the Emax was greater than 150% and the “TRP Activity (EC1.5, concentration of test compound that results in 150% activation of SIRT1)” value is given as “B (EC1.5 1-25 μM)”.
